Assay results from patent US6420147B1, “Haloalkaliphilic microorganisms” (Genencor International, Inc., priority 1991, dated 2002).
Positions of bridges follow the written chain, without caps; N, C: chain ends. Non-standard residues stand in square brackets, D forms with d. Residues, ends and D or L forms follow the SMILES beside them. *: point of attachment. Ileψ(thiazoline)Cys = CC[C@H](C)[C@H](N)C1=N[C@H](C(=O)*)CS1; dOrn = NCCC[C@@H](N)C(=O)O

Key:
[1] = system: Cluster 4 haloalkaliphilic bacteria; experiment: Antibiotic sensitivity, distribution of positive characters; type: cell-based, haloalkaliphilic eubacteria; details: share of strains of cluster 4 (78.5% similarity level, SSM) scored positive = clear zone around antibiotic disk; Medium A agar, 37° C., up to 14 days
Protocol: (§1) A light suspension of bacteria in alkaline, saline, nutrient broth was spread on the surface of alkaline nutrient, saline agar (Medium A) and allowed to dry. Commercially available antibiotic susceptibility test disks (Oxoid or Mast Laboratories: Merseyside, U.K.) were applied to the agar surface. The bacteria were cultivated at 37° C. for up to 14 days. Clear zones around the antibiotic disks indicated sensitivity and were recorded as positive.

[2] = system: Cluster 3 haloalkaliphilic bacteria; experiment: as above; type: cell-based, haloalkaliphilic eubacteria; details: share of strains of cluster 3 (78.5% similarity level, SSM) scored positive = clear zone around antibiotic disk; Medium A agar, 37° C., up to 14 days
Protocol: as §1

[3] = system: Cluster 1 haloalkaliphilic bacteria; experiment: as above; type: cell-based; details: share of strains of cluster 1 (78.5% similarity level, SSM) scored positive = clear zone around antibiotic disk; Medium A agar, 37° C., up to 14 days
Protocol: as §1

[4] = system: Cluster 2 haloalkaliphilic bacteria; experiment: as above; type: cell-based; details: share of strains of cluster 2 (78.5% similarity level, SSM) scored positive = clear zone around antibiotic disk; Medium A agar, 37° C., up to 14 days
Protocol: as §1

Strain 95LM.4 = experiment: Antibiotic sensitivity (susceptibility test disks on Medium A agar); type: cell-based; details: antibiotic disks (contents in Appendix C), 37° C., up to 14 days
Protocol: as §1

Strain 86M.4 = experiment: as above; type: cell-based; details: antibiotic disks (contents in Appendix C), 37° C., up to 14 days
Protocol: as §1

Strain 98Nt.4 = experiment: as above; type: cell-based; details: antibiotic disks (contents in Appendix C), 37° C., up to 14 days
Protocol: as §1

Strain 103Nt.4 = experiment: as above; type: cell-based; details: antibiotic disks (contents in Appendix C), 37° C., up to 14 days
Protocol: as §1

Strain 31M.4 = experiment: as above; type: cell-based; details: antibiotic disks (contents in Appendix C), 37° C., up to 14 days
Protocol: as §1

Strain 93dLM.4 = experiment: as above; type: cell-based; details: antibiotic disks (contents in Appendix C), 37° C., up to 14 days
Protocol: as §1

Strain 931LM.4 = experiment: as above; type: cell-based; details: antibiotic disks (contents in Appendix C), 37° C., up to 14 days
Protocol: as §1

Compound | Distribution of positive characters: antibiotic sensitivity, Cluster 4 [1] | Distribution of positive characters: antibiotic sensitivity, Cluster 3 [2] | Distribution of positive characters: antibiotic sensitivity, Cluster 1 [3] | Distribution of positive characters: antibiotic sensitivity, Cluster 2 [4] | Inhibition of growth by antibiotic (Strain 95LM.4) | Inhibition of growth by antibiotic (Strain 86M.4) | Inhibition of growth by antibiotic (Strain 98Nt.4) | Inhibition of growth by antibiotic (Strain 103Nt.4) | Inhibition of growth by antibiotic (Strain 31M.4) | Inhibition of growth by antibiotic (Strain 93dLM.4) | Inhibition of growth by antibiotic (Strain 931LM.4)
CC[C@H](C)[C@H](N)C1=N[C@H](C(=O)N[C@@H](CC(C)C)C(=O)N[C@H](CCC(=O)O)C(=O)N[C@H](C(=O)N[C@H]2CCCCNC(=O)[C@H](CC(N)=O)NC(=O)[C@@H](CC(=O)O)NC(=O)[C@H](Cc3cnc[nH]3)NC(=O)[C@@H](Cc3ccccc3)NC(=O)[C@H]([C@@H](C)CC)NC(=O)[C@@H](CCCN)NC2=O)[C@@H](C)CC)CS1 [bacitracin] ({Ileψ(thiazoline)Cys}-L[dE]IK[dOrn]I[dF]H[dD]N; lactam 4-C) | 100 | 100 | 100 | 82 | inhibited | inhibited | inhibited | not inhibited | not inhibited | inhibited | –
O=C(N[C@H](CO)[C@H](O)c1ccc([N+](=O)[O-])cc1)C(Cl)Cl [chloramphenicol] | 100 | 100 | 0 | 0 | inhibited | not inhibited | not inhibited | not inhibited | inhibited | – | inhibited
CC(=O)O[C@H]1C[C@@]2(C)[C@@H](C[C@@H](O)[C@H]3[C@@]4(C)CC[C@@H](O)[C@@H](C)[C@@H]4CC[C@@]32C)/C1=C(\CCC=C(C)C)C(=O)O [fusidic acid] | 17 | 0 | 14 | 9 | – | – | – | not inhibited | inhibited | – | inhibited
NC[C@H]1O[C@H](O[C@H]2[C@H](O)[C@@H](O[C@H]3O[C@H](CO)[C@@H](O)[C@H](N)[C@H]3O)[C@H](N)C[C@@H]2N)[C@H](O)[C@@H](O)[C@@H]1O [kanamycin] | 17 | 0 | 0 | 0 | not inhibited | not inhibited | not inhibited | – | – | not inhibited | –
COc1cccc(OC)c1C(=O)N[C@@H]1C(=O)N2[C@@H]1SC(C)(C)[C@@H]2C(=O)O [methicillin] | 0 | 0 | 0 | 0 | – | – | – | not inhibited | inhibited | – | inhibited
CCn1cc(C(=O)O)c(=O)c2ccc(C)nc21 [nalidixic acid] | 0 | 0 | 0 | 18 | – | – | – | inhibited | inhibited | – | inhibited
O=C1CN(/N=C/c2ccc([N+](=O)[O-])o2)C(=O)N1 [nitrofurantoin] | – | – | – | – | – | – | – | – | – | – | not inhibited
CO[C@H]1C[C@H](O[C@H]2[C@H](C)[C@@H](O[C@@H]3O[C@H](C)C[C@H](N(C)C)[C@H]3O)[C@@H](C)C[C@@]3(CO3)C(=O)[C@H](C)[C@@H](O)[C@@H](C)[C@@H](C)OC(=O)[C@@H]2C)O[C@@H](C)[C@@H]1O [oleandomycin] | 100 | 100 | 0 | 0 | inhibited | not inhibited | not inhibited | not inhibited | inhibited | inhibited | –
CC1(C)S[C@@H]2[C@H](NC(=O)Cc3ccccc3)C(=O)N2[C@H]1C(=O)O [penicillin G] | – | – | – | – | inhibited | not inhibited | not inhibited | inhibited | inhibited | inhibited | inhibited
CO[C@H]1/C=C/O[C@@]2(C)Oc3c(C)c(O)c4c(O)c(c(/C=N/N5CCN(C)CC5)c(O)c4c3C2=O)NC(=O)/C(C)=C\C=C\[C@H](C)[C@H](O)[C@@H](C)[C@@H](O)[C@@H](C)[C@H](OC(C)=O)[C@@H]1C [rifampicin] | 83 | 67 | 14 | 64 | – | not inhibited | – | not inhibited | not inhibited | – | –
Cc1cc(NS(=O)(=O)c2ccc(N)cc2)no1 [sulphamethoxazole] | – | – | – | – | – | – | – | inhibited | not inhibited | – | –
CN(C)[C@@H]1C(O)=C(C(N)=O)C(=O)[C@@]2(O)C(O)=C3C(=O)c4c(O)cccc4[C@@](C)(O)[C@H]3C[C@@H]12 [tetracycline] | 17 | 33 | 14 | 9 | not inhibited | not inhibited | not inhibited | – | – | not inhibited | –
COc1cc(Cc2cnc(N)nc2N)cc(OC)c1OC [trimethoprim] | – | – | – | – | – | – | – | inhibited | not inhibited | – | not inhibited
CN[C@H](CC(C)C)C(=O)N[C@H]1C(=O)N[C@@H](CC(N)=O)C(=O)N[C@H]2C(=O)N[C@H]3C(=O)N[C@H](C(=O)N[C@H](C(=O)O)c4cc(O)cc(O)c4-c4cc3ccc4O)[C@H](O)c3ccc(c(Cl)c3)Oc3cc2cc(c3O[C@@H]2O[C@H](CO)[C@@H](O)[C@H](O)[C@H]2O[C@H]2C[C@](C)(N)[C@H](O)[C@H](C)O2)Oc2ccc(cc2Cl)[C@H]1O [vancomycin] | 83 | 100 | 0 | 0 | inhibited | not inhibited | not inhibited | not inhibited | – | inhibited | –
Gentamycin | 50 | 67 | 0 | 0 | – | – | – | – | – | – | –
gentamicin | – | – | – | – | not inhibited | not inhibited | not inhibited | not inhibited | inhibited | inhibited | inhibited
neomycin | 0 | 0 | 0 | 0 | not inhibited | not inhibited | not inhibited | inhibited | – | not inhibited | –
polymixin | 0 | 0 | 0 | 0 | not inhibited | not inhibited | not inhibited | inhibited | not inhibited | not inhibited | –
